The values that follow come from patent US5108896A, “Simultaneous immunoassay of two analytes using dual enzyme labelled antibodies” (priority 1986, dated 1992).

SMILES strings stand for the structures. Like-named read-outs stand apart in the source and are kept apart here.

The target of this experiment is β-galactosidase (Escherichia coli, UniProt P00722). The experiment in a line: Kinetics of β-galactosidase with p-NPBG, with and without diethanolamine. The experiment is classed as biochemical. As to conditions: for Km: read-out: Michaelis constant (Km) of β-galactosidase for p-NPBG. As for the experimental part: β-galactosidase has a pH optimum of 7.4 for p-nitrophenyl-β-D-galactoside (p-NPBG), although in a single assay format using normal substrate concentrations (up to approximately 5 mM), the pH can be raised to 8.6 with only a slight loss (approximately 20%) of activity. […] We have also found, however, that by increasing the concentration of p-NPBG at pH 8.6, even in the presence of about 1M diethanolamine, substantial activity of β-galactosidase can be achieved. Substantial activity of β-galactosidase is also obtained if the same reaction medium is used but with p-NPBG replaced by o-NPBG.
Chain of β-galactosidase (P00722 2-1024): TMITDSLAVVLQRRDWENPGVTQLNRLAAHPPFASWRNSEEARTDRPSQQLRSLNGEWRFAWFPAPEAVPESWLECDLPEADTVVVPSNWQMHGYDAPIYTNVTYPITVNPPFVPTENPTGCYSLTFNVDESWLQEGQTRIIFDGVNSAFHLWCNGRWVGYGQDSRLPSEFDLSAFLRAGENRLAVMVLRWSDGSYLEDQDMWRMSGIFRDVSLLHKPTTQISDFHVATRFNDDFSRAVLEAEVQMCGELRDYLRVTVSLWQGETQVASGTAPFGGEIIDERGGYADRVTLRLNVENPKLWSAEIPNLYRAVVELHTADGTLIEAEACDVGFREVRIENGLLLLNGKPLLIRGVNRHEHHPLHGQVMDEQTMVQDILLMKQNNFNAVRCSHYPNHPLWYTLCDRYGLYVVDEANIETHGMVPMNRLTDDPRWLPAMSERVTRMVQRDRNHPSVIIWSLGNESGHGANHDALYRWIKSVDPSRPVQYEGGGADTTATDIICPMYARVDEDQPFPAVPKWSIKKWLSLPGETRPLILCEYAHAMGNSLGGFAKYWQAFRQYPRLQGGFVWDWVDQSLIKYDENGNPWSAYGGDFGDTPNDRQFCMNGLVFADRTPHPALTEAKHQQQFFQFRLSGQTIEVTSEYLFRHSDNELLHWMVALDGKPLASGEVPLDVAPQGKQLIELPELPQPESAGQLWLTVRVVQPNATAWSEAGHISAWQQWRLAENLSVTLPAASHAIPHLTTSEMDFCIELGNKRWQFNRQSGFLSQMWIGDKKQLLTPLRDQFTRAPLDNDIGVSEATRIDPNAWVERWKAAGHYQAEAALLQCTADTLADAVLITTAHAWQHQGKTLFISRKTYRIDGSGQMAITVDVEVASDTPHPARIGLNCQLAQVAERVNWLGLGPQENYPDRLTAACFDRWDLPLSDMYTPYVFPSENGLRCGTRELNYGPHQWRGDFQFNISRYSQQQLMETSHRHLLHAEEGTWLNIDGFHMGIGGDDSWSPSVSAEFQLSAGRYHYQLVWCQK

As for `OCCNCCO` [diethanolamine], the “activity of β-galactosidase (inhibition by diethanolamine)” value (about 1M diethanolamine, pH 8.6, p-NPBG at normal substrate concentrations (up to approximately 5 mM)) is “almost totally abolished”. `O=[N+]([O-])c1ccc(O[C@@H]2O[C@H](CO)[C@H](O)[C@H](O)[C@H]2O)cc1` [p-NPBG, p-nitrophenyl-β-D-galactoside]: the Km (as a rule, the substrate concentration at which the rate is half of its maximum) worked out at 21 mM (in the presence of 1M diethanolamine (competitive inhibition)) and 0.066 mM (without diethanolamine).
